According to patent US20210070748A1, “INHIBITORS OF BRUTONS TYROSINE KINASE” (Pharmacyclics LLC, priority 2015, published 2021):

Legend:
Format in all cases: biochemical
[1] = target: LCK (Homo sapiens, UniProt P06239); assay: Inhibition of a panel of kinases, in vitro HotSpot kinase assay: LCK; details: D-compounds panel data; 1 μM ATP; read-out: IC50 LCK
[2] = target: T1, TEC (Homo sapiens, UniProt P42680); assay: Inhibition of a panel of kinases, in vitro HotSpot kinase assay: TEC; details: D-compounds panel data; 1 μM ATP
T1 sequence (P42680 1-631): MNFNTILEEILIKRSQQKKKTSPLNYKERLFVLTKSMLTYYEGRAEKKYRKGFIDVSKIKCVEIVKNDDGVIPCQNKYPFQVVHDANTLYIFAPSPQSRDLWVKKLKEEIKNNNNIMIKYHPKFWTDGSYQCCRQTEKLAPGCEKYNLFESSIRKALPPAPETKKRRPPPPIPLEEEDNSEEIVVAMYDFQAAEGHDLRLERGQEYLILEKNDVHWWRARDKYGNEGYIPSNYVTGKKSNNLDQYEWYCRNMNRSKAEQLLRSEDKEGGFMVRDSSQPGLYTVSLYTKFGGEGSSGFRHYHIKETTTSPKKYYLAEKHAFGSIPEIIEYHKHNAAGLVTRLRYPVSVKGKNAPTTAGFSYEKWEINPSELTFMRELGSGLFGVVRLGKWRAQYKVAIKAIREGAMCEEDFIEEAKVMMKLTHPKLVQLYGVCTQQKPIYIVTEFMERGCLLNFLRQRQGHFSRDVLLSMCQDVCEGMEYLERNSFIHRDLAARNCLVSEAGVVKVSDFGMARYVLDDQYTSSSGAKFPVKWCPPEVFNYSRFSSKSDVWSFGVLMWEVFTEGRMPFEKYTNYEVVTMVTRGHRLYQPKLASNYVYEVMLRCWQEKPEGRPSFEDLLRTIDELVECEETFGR
Protocol: (§1) The degree of inhibition of a panel of kinases is determined using the in vitro HotSpot kinase assay (purified enzymes, ^33P-ATP, an appropriate substrate and 1 μM ATP).

[3] = target: T2, ITK (Homo sapiens, UniProt Q08881); assay: Inhibition of a panel of kinases, in vitro HotSpot kinase assay: ITK; details: D-compounds panel data; 1 μM ATP
T2 sequence (Q08881 1-620): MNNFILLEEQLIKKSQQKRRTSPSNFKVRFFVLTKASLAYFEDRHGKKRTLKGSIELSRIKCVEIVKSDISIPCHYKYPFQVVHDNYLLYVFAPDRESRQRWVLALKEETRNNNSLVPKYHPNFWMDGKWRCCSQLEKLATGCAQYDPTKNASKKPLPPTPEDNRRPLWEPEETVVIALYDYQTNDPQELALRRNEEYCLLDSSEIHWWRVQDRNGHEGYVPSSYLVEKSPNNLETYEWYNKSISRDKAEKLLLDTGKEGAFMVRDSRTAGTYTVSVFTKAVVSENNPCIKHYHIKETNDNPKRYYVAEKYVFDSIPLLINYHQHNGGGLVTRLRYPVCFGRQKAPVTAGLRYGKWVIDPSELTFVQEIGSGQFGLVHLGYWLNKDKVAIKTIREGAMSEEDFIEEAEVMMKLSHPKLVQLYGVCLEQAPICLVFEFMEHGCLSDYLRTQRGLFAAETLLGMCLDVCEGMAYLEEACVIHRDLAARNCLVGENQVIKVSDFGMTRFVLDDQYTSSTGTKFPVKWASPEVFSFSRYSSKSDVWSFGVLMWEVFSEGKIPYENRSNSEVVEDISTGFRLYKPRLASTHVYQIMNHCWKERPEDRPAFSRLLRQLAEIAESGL
Protocol: as §1

[4] = target: T3, BTK-WT (Homo sapiens, UniProt Q06187); assay: Btk in vitro inhibitory activity (one of Method A TR-FRET, Method B electrophoretic mobility shift, Method C radiometric filter binding); details: D-compounds panel data; read-out: IC50 BTK-WT
T3 construct: purified from insect cells as a full-length construct containing an N-terminal 6X-His tag; His6 (N); made in house; host or cells: insect cells (baculovirus Sf21 in Method B)
T3 sequence (Q06187 whole entry): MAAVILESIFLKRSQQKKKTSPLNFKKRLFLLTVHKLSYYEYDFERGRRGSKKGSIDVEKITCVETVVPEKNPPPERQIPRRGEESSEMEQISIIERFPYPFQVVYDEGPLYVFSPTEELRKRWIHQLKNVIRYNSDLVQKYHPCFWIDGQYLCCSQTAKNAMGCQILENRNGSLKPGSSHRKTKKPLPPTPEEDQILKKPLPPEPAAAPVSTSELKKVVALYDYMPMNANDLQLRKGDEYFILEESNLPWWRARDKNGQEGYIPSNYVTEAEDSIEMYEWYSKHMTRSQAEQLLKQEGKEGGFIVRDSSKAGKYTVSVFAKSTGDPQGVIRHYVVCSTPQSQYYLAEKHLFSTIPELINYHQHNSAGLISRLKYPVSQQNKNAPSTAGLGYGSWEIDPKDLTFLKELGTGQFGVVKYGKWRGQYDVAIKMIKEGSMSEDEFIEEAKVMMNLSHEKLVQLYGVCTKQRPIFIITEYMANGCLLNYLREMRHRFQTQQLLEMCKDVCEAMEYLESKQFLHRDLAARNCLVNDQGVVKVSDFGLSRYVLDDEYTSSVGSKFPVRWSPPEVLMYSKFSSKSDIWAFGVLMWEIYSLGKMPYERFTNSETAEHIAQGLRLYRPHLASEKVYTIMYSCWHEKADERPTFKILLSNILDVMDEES

Sequence of LCK (P06239 whole entry): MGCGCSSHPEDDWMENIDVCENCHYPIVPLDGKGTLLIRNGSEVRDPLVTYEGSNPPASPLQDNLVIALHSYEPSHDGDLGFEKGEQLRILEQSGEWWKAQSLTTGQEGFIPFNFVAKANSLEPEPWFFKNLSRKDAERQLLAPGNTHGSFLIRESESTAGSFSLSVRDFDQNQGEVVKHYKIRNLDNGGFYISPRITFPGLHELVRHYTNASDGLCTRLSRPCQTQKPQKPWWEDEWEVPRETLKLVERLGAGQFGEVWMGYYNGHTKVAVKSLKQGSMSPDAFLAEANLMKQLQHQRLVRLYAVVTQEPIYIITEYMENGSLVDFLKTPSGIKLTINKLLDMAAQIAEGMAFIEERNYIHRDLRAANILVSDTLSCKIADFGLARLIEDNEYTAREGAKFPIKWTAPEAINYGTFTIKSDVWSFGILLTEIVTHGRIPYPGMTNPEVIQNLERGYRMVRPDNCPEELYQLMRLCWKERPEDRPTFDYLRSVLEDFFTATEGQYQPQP

| IC50 [1] | IC50 [2] | IC50 [3] | IC50 [4] | Compound |
| --- | --- | --- | --- | --- |
| 100 to 1000 nM | ≤ 10 nM | 100 to 1000 nM | ≤ 10 nM | C[C@@H]1[C@H](NC(=O)c2ccc3c(c2)OC(F)(F)O3)CCCN1c1cnc(C(N)=O)c(Nc2cnn(C)c2)n1 [Example D-216, 5-[(2R,3R)-3-(2,2-difluoro-2H-1,3-benzodioxole-5-amido)-2-methylpiperidin-1-yl]-3-[(1-methyl-1H-pyrazol-4-yl)amino]pyrazine-2-carboxamide] |
| 100 to 1000 nM | ≤ 10 nM | 100 to 1000 nM | ≤ 10 nM | C[C@@H]1[C@H](NC(=O)c2ccc(N(C)CCO)cc2)CCCN1c1cnc(C(N)=O)c(Nc2cnn(C)c2)n1 [Example D-217, 5-[(2R,3R)-3-{4-[(2-hydroxyethyl)(methyl)amino]benzamido}-2-methylpiperidin-1-yl]-3-[(1-methyl-1H-pyrazol-4-yl)amino]pyrazine-2-carboxamide] |
| 100 to 1000 nM | ≤ 10 nM | 100 to 1000 nM | ≤ 10 nM | CCN(CC)c1ccc(C(=O)N[C@@H]2CCCN(c3cnc(C(N)=O)c(Nc4cnn(C)c4)n3)[C@@H]2C)cc1 [Example D-218, 5-[(2R,3R)-3-[4-(diethylamino)benzamido]-2-methylpiperidin-1-yl]-3-[(1-methyl-1H-pyrazol-4-yl)amino]pyrazine-2-carboxamide] |
| 10 to 100 nM | ≤ 10 nM | 100 to 1000 nM | ≤ 10 nM | C[C@@H]1[C@H](NC(=O)c2ccc(OC3CC3)cc2)CCCN1c1cnc(C(N)=O)c(Nc2cnn(C)c2)n1 [Example D-219, 5-[(2R,3R)-3-(4-cyclopropoxybenzamido)-2-methylpiperidin-1-yl]-3-[(1-methyl-1H-pyrazol-4-yl)amino]pyrazine-2-carboxamide] |
| 100 to 1000 nM | 10 to 100 nM | 1000 to 10000 nM | ≤ 10 nM | C[C@@H]1[C@H](NC(=O)c2ccc(C3(C(F)(F)F)CC3)cc2)CCCN1c1cnc(C(N)=O)c(Nc2cnn(C)c2)n1 [Example D-221, 3-[(1-Methyl-1H-pyrazol-4-yl)amino]-5-[(2R,3R)-2-methyl-3-{4-[1-(trifluoromethyl)cyclopropyl]benzamido}piperidin-1-yl]pyrazine-2-carboxamide] |
| 100 to 1000 nM | ≤ 10 nM | 100 to 1000 nM | ≤ 10 nM | C[C@@H]1[C@H](NC(=O)c2ccc3c(c2)OCCO3)CCCN1c1cnc(C(N)=O)c(Nc2cnn(C)c2)n1 [Example D-224, 5-[(2R,3R)-3-(2,3-dihydro-1,4-benzodioxine-6-amido)-2-methylpiperidin-1-yl]-3-[(1-methyl-1H-pyrazol-4-yl)amino]pyrazine-2-carboxamide] |
| 100 to 1000 nM | ≤ 10 nM | 100 to 1000 nM | ≤ 10 nM | C[C@@H]1[C@H](NC(=O)c2ccc(C3(C)COC3)cc2)CCCN1c1cnc(C(N)=O)c(Nc2cnn(C)c2)n1 [Example D-228, 3-[(1-methyl-1H-pyrazol-4-yl)amino]-5-[(2R,3R)-2-methyl-3-[4-(3-methyloxetan-3-yl)benzamido]piperidin-1-yl]pyrazine-2-carboxamide] |
| 100 to 1000 nM | 10 to 100 nM | 1000 to 10000 nM | ≤ 10 nM | C[C@@H]1[C@H](NC(=O)c2ccc(S(F)(F)(F)(F)F)cc2)CCCN1c1cnc(C(N)=O)c(Nc2cnn(C)c2)n1 [Example D-230, 3-[(1-methyl-1H-pyrazol-4-yl)amino]-5-[(2R,3R)-2-methyl-3-[4-(pentafluoro-λ^6-sulfanyl)benzamido]piperidin-1-yl]pyrazine-2-carboxamide] |
| 100 to 1000 nM | 10 to 100 nM | 100 to 1000 nM | ≤ 10 nM | COc1cc(C(=O)N[C@@H]2CCCN(c3cnc(C(N)=O)c(Nc4cnn(C)c4)n3)[C@@H]2C)ccc1C1CC1 [Example D-231, 5-[(2R,3R)-3-(4-cyclopropyl-3-methoxybenzamido)-2-methylpiperidin-1-yl]-3-[(1-methyl-1H-pyrazol-4-yl)amino]pyrazine-2-carboxamide] |

More lines, now with the values behind:

| Compound | IC50 [1] | IC50 [2] | IC50 [3] | IC50 [4] |
| --- | --- | --- | --- | --- |
| C[C@@H]1[C@H](NC(=O)c2ccc(C3CC3)cc2)CCCN1c1cnc(C(N)=O)c(Nc2cnn(CC(C)(C)O)c2)n1 [Example D-215, 5-[(2R,3R)-3-(4-cyclopropylbenzamido)-2-methylpiperidin-1-yl]-3-{[1-(2-hydroxy-2-methylpropyl)-1H-pyrazol-4-yl]amino}pyrazine-2-carboxamide] | 1000 to 10000 nM | 100 to 1000 nM | 1000 to 10000 nM | ≤ 10 nM |
| CC(C)c1ccc(S(=O)(=O)N[C@@H]2CCCN(c3cnc(C(N)=O)c(Nc4cnn(C)c4)n3)[C@@H]2C)cc1 [Example D-220, 3-[(1-methyl-1H-pyrazol-4-yl)amino]-5-[(2R,3R)-2-methyl-3-[4-(propan-2-yl)benzenesulfonamido]piperidin-1-yl]pyrazine-2-carboxamide] | > 10000 nM | 1000 to 10000 nM | > 10000 nM | 1000 to 10000 nM |
| CC(C)c1ccc(C(=O)N[C@@H]2CCCN(c3cnc(C(N)=O)c(Nc4cnn(C)c4)n3)C2)cc1 [Example D-222, 3-[(1-Methyl-1H-pyrazol-4-yl)amino]-5-[(3R)-3-[4-(propan-2-yl)benzamido]piperidin-1-yl]pyrazine-2-carboxamide] | 1000 to 10000 nM | 10 to 100 nM | > 10000 nM | ≤ 10 nM |
| C[C@@H]1[C@H](NC(=O)c2ccc(C(C)(C)C)cc2F)CCCN1c1cnc(C(N)=O)c(Nc2cnn(C)c2)n1 [Example D-223, 5-[(2R,3R)-3-(4-tert-butyl-2-fluorobenzamido)-2-methylpiperidin-1-yl]-3-[(1-methyl-1H-pyrazol-4-yl)amino]pyrazine-2-carboxamide] | 100 to 1000 nM | 10 to 100 nM | 1000 to 10000 nM | ≤ 10 nM |
| Cn1cc(Nc2nc(N3CCC[C@@H](n4ccc5cc(C6CC6)ncc5c4=O)C3)cnc2C(N)=O)cn1 [Example D-225, 5-[(3R)-3-(6-cyclopropyl-1-oxo-1,2-dihydro-2,7-naphthyridin-2-yl)piperidin-1-yl]-3-[(1-methyl-1H-pyrazol-4-yl)amino]pyrazine-2-carboxamide] | 100 to 1000 nM | ≤ 10 nM | 100 to 1000 nM | ≤ 10 nM |
| C[C@@H]1[C@H](NC(=O)c2ccc3scnc3c2)CCCN1c1cnc(C(N)=O)c(Nc2ccc(N3CCN(C)CC3)cc2)n1 [Example D-226, N-[(2R,3R)-1-(5-carbamoyl-6-{[4-(4-methylpiperazin-1-yl)phenyl]amino}pyrazin-2-yl)-2-methylpiperidin-3-yl]-1,3-benzothiazole-5-carboxamide] | 10 to 100 nM | ≤ 10 nM | 10 to 100 nM | ≤ 10 nM |
| C[C@@H]1[C@H](NC(=O)c2ccc(S(C)(=O)=O)cc2)CCCN1c1cnc(C(N)=O)c(Nc2ccc(N3CCN(C)CC3)cc2)n1 [Example D-227, 5-[(2R,3R)-3-(4-methanesulfonylbenzamido)-2-methylpiperidin-1-yl]-3-{[4-(4-methylpiperazin-1-yl)phenyl]amino}pyrazine-2-carboxamide] | 10 to 100 nM | ≤ 10 nM | 10 to 100 nM | ≤ 10 nM |
| C[C@@H]1[C@H](NC(=O)c2ccc(C(C)(C)C)s2)CCCN1c1cnc(C(N)=O)c(Nc2cnn(C)c2)n1 [Example D-229, 5-[(2R,3R)-3-(5-tert-butylthiophene-2-amido)-2-methylpiperidin-1-yl]-3-[(1-methyl-1H-pyrazol-4-yl)amino]pyrazine-2-carboxamide] | 10 to 100 nM | 10 to 100 nM | 1000 to 10000 nM | ≤ 10 nM |
